This note sets out measurements from paper PMC6934184, “Selective DNA-PKcs inhibition extends the therapeutic index of localized radiotherapy and chemotherapy” (The Journal of Clinical Investigation, 2019).

For the assay, the target named is T1, MAPK8 (JNK1) (Homo sapiens, UniProt P45983).
T1 construct: purchased Thermo Fisher Scientific (Life Technologies) SelectScreen
Description: SelectScreen Z'LYTE. The assay is classed as biochemical. The following applies: ATP 100 µM. The method in brief:
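NU5455 was profiled across the SelectScreen Broad panel of kinase activity and binding assays. Z'LYTE reactions such as CSF1R ran at apparent Km ATP, while the Adapta CAMK1 assay used ATP listed as 10. Values are given as percent.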

What is called inhibition is the share of the control response that was lost under treatment. Read a low inhibition as a response near the control.

T1 sequence (P45983 whole entry): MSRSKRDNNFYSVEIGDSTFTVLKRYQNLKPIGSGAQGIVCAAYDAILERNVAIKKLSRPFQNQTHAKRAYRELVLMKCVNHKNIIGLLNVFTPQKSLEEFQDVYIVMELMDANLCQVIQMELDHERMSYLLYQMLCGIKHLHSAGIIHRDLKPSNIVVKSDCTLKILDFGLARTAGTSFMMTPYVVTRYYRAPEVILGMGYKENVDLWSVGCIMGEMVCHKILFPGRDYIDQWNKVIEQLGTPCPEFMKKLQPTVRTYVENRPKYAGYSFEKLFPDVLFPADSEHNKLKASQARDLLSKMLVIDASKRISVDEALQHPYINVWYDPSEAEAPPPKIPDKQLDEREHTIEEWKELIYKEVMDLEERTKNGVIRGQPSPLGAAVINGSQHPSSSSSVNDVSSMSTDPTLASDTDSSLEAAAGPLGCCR

As for `CN(C(=O)CN1CCOCC1)c1ccc2sc3c(-c4cccc5c(=O)cc(N6CC7CCC(C6)O7)oc45)cccc3c2c1` [NU5455], the inhibition at 1 µM was 12%.
